According to patent publication US10166218B2, “3-(1H-indol-2-yl)-1H-pyrazolo[3,4-C]pyridines and therapeutic uses thereof” (Samumed, LLC, priority 2015, dated 2019):

Assays:
[1] = system: primary human fibroblasts derived from IPF patients (LL29 cells) treated with TGF-β1; α-smooth muscle actin (αSMA); test: Inhibition of the fibrotic process: αSMA staining in TGF-β1 treated primary human fibroblasts from IPF patients (LL29 cells); format: cell-based; conditions: Fibroblast, 96 h, TGF-β1 20 ng/mL, 4 days; for EC50: % cells positive for αSMA
Summary of the method: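 Read-out: fraction of αSMA-positive cells by high-content imaging, SYTOX-stained dead cells excluded, normalized to TGF-β1/DMSO wells. Cells got compound (10 μM–[…], 11 points) plus TGF-β1 20 ng/mL for 4 days. EC50 from triplicate curves; above 10 μM, % inhibition at 10 μM given.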

[2] = system: primary human mesenchymal stem cells (hMSCs); test: Induction of chondrogenesis in primary human mesenchymal stem cells (chondrogenic nodules); format: cell-based; conditions: 144 h, 6 days; for EC50: concentration required to induce 50% levels of chondrogenesis of TGF-β3 positive control, read-out: Conc (nM) of 50% TGF-β3 activity; for Emax: nodules, relative to TGF-β3 (10 ng/mL) positive control, read-out: Max. Activity as % TGF-β3 activity
Method: Representative compounds were screened using primary human mesenchymal stem cells (hMSCs) to determine their ability to induce chondrogenesis (process by which cartilage is developed).
Primary human mesenchymal stem cells (hMSCs) were purchased from Lonza (Walkersville, Md.) and expanded in Mesenchymal Stem Cell Growth Media (Lonza). Cells between passage 3 and 6 were used for the experiments.
Each compound was dissolved in DMSO as a 10 mM stock and used to prepare compound source plates. Serial dilution (1:3, 6-point dose-response curves from 2700 nM to 10 nM) and compound transfer was performed using the ECHO 550 (Labcyte, Sunnyvale, Calif.) into 96-well clear bottom assay plates (Greiner Bio-One) with appropriate DMSO backfill for a final DMSO concentration of 0.03%. hMSCs were plated at 20,000 cells/well in 250 μL/well Incomplete Chondrogenic Induction Medium (Lonza; DMEM, dexamethasone, ascorbate, insulin-transferrin-selenium [ITS supplement], gentamycin-amphotericin [GA-1000], sodium pyruvate, proline and L-glutamine). TGF-β3 (10 ng/mL) was used as a positive control for differentiation while negative control wells were treated with 75 nL DMSO for normalization and calculating EC50 values. Cells were incubated at 37° C. and 5% CO2 for 6 days. To image chondrogenic nodules, the cells were fixed using 4% formaldehyde (Electron Microscopy Sciences), and stained with 2 μg/mL Rhodamine B (Sigma-Aldrich) and 20 μM Nile Red (Sigma-Aldrich) [Johnson K., et. al, A Stem Cell-Based Approach to Cartilage Repair, Science, (2012), 336(6082), 717-721]. The nodules imaged (4 images per well at 4× magnification) by excitation at 531 nm and emission at 625 nm and quantified using the CellInsight CX5 (Thermo Scientific). Number of nodules in each well was normalized to the average of 3 DMSO treated wells on the same plate using Excel (Microsoft Inc.). The normalized averages (fold change over DMSO) of 3 replicate wells for each compound concentration were calculated. Due to solubility limitations of some of the compounds, curve fitting was incomplete leading to inaccurate EC50 determinations.
Using TGF-β3 as a positive control, the concentration of representative compounds required to induce 50% levels of chondrogenesis is reported. In addition, the maximum activity of each compound and the respective dose that each compound reached maximum chondrogenesis activity is reported.

EC50 [2]	SMILES	EC50 [1]	Emax [2]	inhibition at 10 µM ([1]; αSMA, 10 μM, read-out: percent inhibition at 10 μM (given for EC50 of >10 μM))
900 nM	Cc1ccncc1-c1cc2c(-c3cc4c(-c5cc(F)cc(CNS(C)(=O)=O)c5)cccc4[nH]3)n[nH]c2cn1 [Compound 481, N-(3-Fluoro-5-(2-(5-(4-methylpyridin-3-yl)-1H-pyrazolo[3,4-c]pyridin-3-yl)-1H-indol-4-yl)benzyl)methanesulfonamide]	712 nM	152%	
	O=C(CC1CCNCC1)Nc1cncc(-c2cc3c(-c4cc5c(-c6ccccn6)cccc5[nH]4)n[nH]c3cn2)c1 [Compound 621, 2-(Piperidin-4-yl)-N-(5-(3-(4-(pyridin-2-yl)-1H-indol-2-yl)-1H-pyrazolo[3,4-c]pyridin-5-yl)pyridin-3-yl)acetamide]	3140 nM	57%	
10 nM	CN(C)CCNc1cc(F)cc(-c2cccc3[nH]c(-c4n[nH]c5cnc(-c6ccccn6)cc45)cc23)c1 [Compound 476, N^1-(3-Fluoro-5-(2-(5-(pyridin-2-yl)-1H-pyrazolo[3,4-c]pyridin-3-yl)-1H-indol-4-yl)phenyl)-N^2,N^2-dimethylethane-1,2-diamine]	582 nM	89%	
30 nM	CN(C)Cc1cncc(-c2cc3c(-c4cc5c(-c6ccccn6)cccc5[nH]4)n[nH]c3cn2)c1 [Compound 153, N,N-Dimethyl-1-(5-(3-(4-(pyridin-2-yl)-1H-indol-2-yl)-1H-pyrazolo[3,4-c]pyridin-5-yl)pyridin-3-yl)methanamine]	461 nM	75%	
	c1cncc(-c2cccc3[nH]c(-c4n[nH]c5cnc(-c6cncc(CN7CCCC7)c6)cc45)cc23)c1 [Compound 98, 3-(4-(Pyridin-3-yl)-1H-indol-2-yl)-5-(5-(pyrrolidin-1-ylmethyl)pyridin-3-yl)-1H-pyrazolo[3,4-c]pyridine]	1610 nM	22%	
100 nM	O=C(Nc1cncc(-c2cc3c(-c4cc5c(-c6cccnc6)cccc5[nH]4)n[nH]c3cn2)c1)C1CC1 [Compound 104, N-(5-(3-(4-(Pyridin-3-yl)-1H-indol-2-yl)-1H-pyrazolo[3,4-c]pyridin-5-yl)pyridin-3-yl)cyclopropanecarboxamide]	189 nM	308%	
300 nM	Cn1cc(-c2cc3c(-c4cc5c(-c6ccncc6)cccc5[nH]4)n[nH]c3cn2)cn1 [Compound 600, 5-(1-Methyl-1H-pyrazol-4-yl)-3-(4-(pyridin-4-yl)-1H-indol-2-yl)-1H-pyrazolo[3,4-c]pyridine]	13 nM	138%	
	c1ccc2[nH]c(-c3n[nH]c4cnc(-c5cncc(CN6CCCC6)c5)cc34)cc2c1 [Compound 266, 3-(1H-Indol-2-yl)-5-(5-(pyrrolidin-1-ylmethyl)pyridin-3-yl)-1H-pyrazolo [3,4-c]pyridine]	143 nM	138%	
	Fc1ccccc1-c1cccc2[nH]c(-c3n[nH]c4cnc(-c5cncc(CN6CCCCC6)c5)cc34)cc12 [Compound 71, 3-(4-(2-Fluorophenyl)-1H-indol-2-yl)-5-(5-(piperidin-1-ylmethyl)pyridin-3-yl)-1H-pyrazolo[3,4-c]pyridine]	157 nM	18%	
	O=C(Nc1cncc(-c2cc3c(-c4cc5ccccc5[nH]4)n[nH]c3cn2)c1)c1ccccc1 [Compound 263, N-(5-(3-(1H-Indol-2-yl)-1H-pyrazolo[3,4-c]pyridin-5-yl)pyridin-3-yl) benzamide]	65 nM	122%	
900 nM	CS(=O)(=O)NCc1cc(F)cc(-c2cccc3[nH]c(-c4n[nH]c5cnc(-c6cncnc6)cc45)cc23)c1 [Compound 503, N-(3-Fluoro-5-(2-(5-(pyrimidin-5-yl)-1H-pyrazolo[3,4-c]pyridin-3-yl)-1H-indol-4-yl)benzyl)methanesulfonamide]	> 10000 nM	102%	0%
